The assay addresses human PDE2A1 (Homo sapiens (Human), UniProt O00408). As to the kind of experiment: PDE selectivity IMAP FP assay, human PDE2A1. The format is biochemical. The conditions noted are these: Human PDE2; Lab B; read-out: Human PDE2 Ki (nM) Lab B. The method, then: Selectivity for PDE2, as compared to other PDE families, was assessed using the IMAP® technology. Human PDE10A2 enzyme was prepared from cytosolic fractions of transiently transfected HEK cells.
A Labcyte POD 810 (Labcyte, Sunnyvale, Calif.) was used to dispense 200 nL from each well of the titration plate to make eleven copies of the assay plate for each titration, one copy for each PDE enzyme. A solution of each enzyme (dilution from aliquots, sufficient to produce 20% substrate conversion) and a separate solution of FAM-labeled cAMP or FAM-labeled cGMP from Molecular Devices (Sunnyvale, Calif., product # R7506 or cGMP#R7508), at a final concentration of 50 nM were made in the assay buffer (10 mM Tris HCl, pH 7.2, 10 mM MgCl2, 0.05% NaN3 0.01% Tween-20, and 1 mM DTT). Note that the substrate for PDE2 is 50 nM FAM cAMP containing 1000 nM of cGMP. The enzyme and the substrate were then added to the assay plates in two consecutive additions of 10 μL and then shaken to mix. The reaction was allowed to proceed at room temperature for 60 minutes. A binding solution was then made from the kit components, comprised of 80% Solution A, 20% Solution B and binding reagent at a volume of 1/600 the total binding solution. The enzymatic reaction was stopped by addition of 60 μL of the binding solution to each well of the assay plate. […] The plates were incubated at room temperature for one hour, then the parallel and perpendicular fluorescence was measured using a Tecan Genios Pro plate reader (Tecan, Switzerland). […] The intrinsic PDE2 inhibitory activity of a compound which may be used in accordance with the present invention may be determined by these assays. […]
The PDE2 Ki is a measure of the ability of the test compound to inhibit the action of the PDE2 enzyme.

human PDE2A1, sequence (O00408 other isoform, or with tags, fused parts or gaps): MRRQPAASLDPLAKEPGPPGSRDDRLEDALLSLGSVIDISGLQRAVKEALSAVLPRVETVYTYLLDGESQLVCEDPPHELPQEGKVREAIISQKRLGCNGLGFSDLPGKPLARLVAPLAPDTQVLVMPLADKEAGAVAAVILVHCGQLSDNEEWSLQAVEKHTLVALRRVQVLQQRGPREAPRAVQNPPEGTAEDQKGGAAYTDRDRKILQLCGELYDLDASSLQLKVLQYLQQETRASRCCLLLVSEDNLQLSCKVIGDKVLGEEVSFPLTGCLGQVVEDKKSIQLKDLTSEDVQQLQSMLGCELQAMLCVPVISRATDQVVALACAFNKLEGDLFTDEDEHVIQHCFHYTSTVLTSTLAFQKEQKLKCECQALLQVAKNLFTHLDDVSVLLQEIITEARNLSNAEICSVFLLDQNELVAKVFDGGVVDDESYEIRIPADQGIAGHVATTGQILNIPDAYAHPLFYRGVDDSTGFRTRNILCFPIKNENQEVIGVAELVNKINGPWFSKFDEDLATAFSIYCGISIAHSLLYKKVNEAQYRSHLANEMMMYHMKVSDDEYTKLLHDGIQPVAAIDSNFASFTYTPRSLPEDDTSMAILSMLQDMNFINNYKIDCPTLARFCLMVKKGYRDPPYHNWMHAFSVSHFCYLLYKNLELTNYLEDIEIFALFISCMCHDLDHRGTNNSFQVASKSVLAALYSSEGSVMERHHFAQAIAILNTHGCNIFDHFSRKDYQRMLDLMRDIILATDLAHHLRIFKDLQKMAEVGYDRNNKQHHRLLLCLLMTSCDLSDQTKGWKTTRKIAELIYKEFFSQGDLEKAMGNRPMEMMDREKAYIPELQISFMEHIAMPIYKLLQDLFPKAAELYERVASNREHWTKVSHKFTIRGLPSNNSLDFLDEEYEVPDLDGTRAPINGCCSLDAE

The Ki is the dissociation constant of the complex between target and ligand, obtained from inhibition or displacement. Consider `CC(c1ccc(C2CC2)cc1)n1nc(C(F)F)c2c(=O)[nH]c(O)nc21` (single isomer, unassigned) [Example 275, (R)- or (S)-1-(1-(4-Cyclopropylphenyl)ethyl)-3-(difluoromethyl)-6-hydroxy-1H-pyrazolo[3,4-d]pyrimidin-4(5H)-one], for which the Ki came to 416 nM.

For the molecule `CC(c1ccc(C2CC2)cc1)n1nc(C(F)F)c2c(=O)[nH]c(O)nc21` (single isomer, unassigned) [Example 276, (S)- or (R)-1-(1-(4-Cyclopropylphenyl)ethyl)-3-(difluoromethyl)-6-hydroxy-1H-pyrazolo[3,4-d]pyrimidin-4(5H)-one], the Ki worked out at 3.6 nM.

`CC(c1ccc(C(F)(F)F)cc1)n1nc(CC(F)F)c2c(=O)[nH]c(O)nc21` (single isomer, unassigned) [Example 291]: the Ki came out at 2.5 nM.

As for `CC(c1ccc(C(F)(F)F)cc1)n1nc(CC(F)F)c2c(=O)[nH]c(O)nc21` (single isomer, unassigned) [Example 292], the Ki was 137 nM.

With `CC(c1ccc(C(F)(F)F)cc1F)n1nc(C(F)(F)F)c2c(=O)[nH]c(O)nc21` (single isomer, unassigned) [Example 305], the Ki worked out at 1.9 nM.

In the case of `CC(c1ccc(C(F)(F)F)cc1F)n1nc(C(F)(F)F)c2c(=O)[nH]c(O)nc21` (single isomer, unassigned) [Example 306], the Ki was determined as 330 nM.

In the case of `CC(c1ccc(OC(F)(F)F)cc1F)n1nc(C(F)(F)F)c2c(=O)[nH]c(O)nc21` (single isomer, unassigned) [Example 307, (R)- or (S)-1-{1-[2-Fluoro-4-(trifluoro-methoxy)phenyl]ethyl}-6-hydroxy-3-(trifluoromethyl)-1,5-dihydro-4H-pyrazolo-[3,4-d]pyrimidin-4-one], the Ki amounted to 10 nM.

For the molecule `CC(c1ccc(OC(F)(F)F)cc1F)n1nc(C(F)(F)F)c2c(=O)[nH]c(O)nc21` (single isomer, unassigned) [Example 308, (S)- or (R)-1-{1-[2-Fluoro-4-(trifluoro-methoxy)phenyl]ethyl}-6-hydroxy-3-(trifluoromethyl)-1,5-dihydro-4H-pyrazolo[3,4-d]pyrimidin-4-one], the Ki was 213 nM.

On to `CC(c1ccc(OC(F)(F)F)c(F)c1)n1nc(C(F)(F)F)c2c(=O)[nH]c(O)nc21` (single isomer, unassigned) [Example 309, (R)- or (S)-1-{1-[3-Fluoro-4-(trifluoromethoxy)phenyl]ethyl}-6-hydroxy-3-(trifluoromethyl)-1,5-dihydro-4H-pyrazolo[3,4-d]pyrimidin-4-one], for which the Ki was 2.7 nM.

As for `CC(c1ccc(OC(F)(F)F)c(F)c1)n1nc(C(F)(F)F)c2c(=O)[nH]c(O)nc21` (single isomer, unassigned) [Example 310, (S)- or (R)-1-{1-[3-Fluoro-4-(trifluoromethoxy)phenyl]ethyl}-6-hydroxy-3-(trifluoromethyl)-1,5-dihydro-4H-pyrazolo[3,4-d]pyrimidin-4-one], the Ki turned out to be 36 nM.

For `CC(c1ccc(S(F)(F)(F)(F)F)cc1)n1nc(C(F)(F)F)c2c(=O)[nH]c(O)nc21` (single isomer, unassigned) [Example 311, (R)- or (S)-6-Hydroxy-1-{1-[4-(pentafluoro-lambda~6-sulfanyl)phenyl]ethyl}-3-(trifluoromethyl)-1,5-dihydro-4H-pyrazolo[3,4-d]pyrimidin-4-one], the Ki stood at 4.9 nM.

Turning to `CC(c1ccc(S(F)(F)(F)(F)F)cc1)n1nc(C(F)(F)F)c2c(=O)[nH]c(O)nc21` (single isomer, unassigned) [Example 312, (S)- or (R)-6-Hydroxy-1-{1-[4-(pentafluoro-lambda~6-sulfanyl)phenyl]ethyl}-3-(trifluoromethyl)-1,5-dihydro-4H-pyrazolo[3,4-d]pyrimidin-4-one], the Ki amounted to 265 nM.

With `CC(c1ccc(C(F)(F)F)c(F)c1)n1nc(C(F)(F)F)c2c(=O)[nH]c(O)nc21` (single isomer, unassigned) [Example 313, (R)- or (S)-1-{1-[3-Fluoro-4-(trifluoromethyl)phenyl]ethyl}-6-hydroxy-3-(trifluoromethyl)-1,5-dihydro-4H-pyrazolo[3,4-d]pyrimidin-4-one], the Ki worked out at 2.2 nM.

Turning to `CC(c1ccc(C(F)(F)F)c(F)c1)n1nc(C(F)(F)F)c2c(=O)[nH]c(O)nc21` (single isomer, unassigned) [Example 314, (S)- or (R)-1-{1-[3-Fluoro-4-(trifluoromethyl)phenyl]ethyl}-6-hydroxy-3-(trifluoromethyl)-1,5-dihydro-4H-pyrazolo[3,4-d]pyrimidin-4-one], the Ki was 106 nM.

For the molecule `CC(c1ccc(OC(F)F)cc1)n1nc(C(F)(F)F)c2c(=O)[nH]c(O)nc21` (single isomer, unassigned) [Example 315, (R)- or (S)-1-{1-[4-(Difluoromethoxy)phenyl]ethyl}-6-hydroxy-3-(trifluoromethyl)-1,5-dihydro-4H-pyrazolo[3,4-d]pyrimidin-4-one], the Ki was 629 nM.

With `CC(c1ccc(OC(F)F)cc1)n1nc(C(F)(F)F)c2c(=O)[nH]c(O)nc21` (single isomer, unassigned) [Example 316, (S)- or (R)-1-{1-[4-(Difluoromethoxy)phenyl]ethyl}-6-hydroxy-3-(trifluoromethyl)-1,5-dihydro-4H-pyrazolo[3,4-d]pyrimidin-4-one], the Ki came out at 6.1 nM.

Regarding `CC(c1ccc(C(C)(F)F)cc1)n1nc(C(F)(F)F)c2c(=O)[nH]c(O)nc21` (single isomer, unassigned) [Example 317, (R)- or (S)-1-(1-(4-(1,1-Difluoroethyl)phenyl)ethyl)-6-hydroxy-3-(trifluoromethyl)-1H-pyrazolo[3,4-d]pyrimidin-4(5H)-one], the Ki was 326 nM.

Turning to `CC(c1ccc(C(C)(F)F)cc1)n1nc(C(F)(F)F)c2c(=O)[nH]c(O)nc21` (single isomer, unassigned) [Example 318, (S)- or (R)-1-(1-(4-(1,1-Difluoroethyl)phenyl)ethyl)-6-hydroxy-3-(trifluoromethyl)-1H-pyrazolo[3,4-d]pyrimidin-4(5H)-one], the Ki was 3 nM.

`CC(c1ccc(CC(F)F)cc1)n1nc(C(F)(F)F)c2c(=O)[nH]c(O)nc21` (single isomer, unassigned) [Example 319, (R)- or (S)-1-(1-(4-(2,2-Difluoroethyl)phenyl)ethyl)-6-hydroxy-3-(trifluoromethyl)-1H-pyrazolo[3,4-d]pyrimidin-4(5H)-one]: the Ki came to 590 nM.

`CC(c1ccc(CC(F)F)cc1)n1nc(C(F)(F)F)c2c(=O)[nH]c(O)nc21` (single isomer, unassigned) [Example 320, (S)- or (R)-1-(1-(4-(2,2-Difluoroethyl)phenyl)ethyl)-6-hydroxy-3-(trifluoromethyl)-1H-pyrazolo[3,4-d]pyrimidin-4(5H)-one]: the Ki is 13 nM.

As for `CC(c1ccc(OC(F)(F)F)c(Cl)c1)n1nc(C(F)(F)F)c2c(=O)[nH]c(O)nc21` (single isomer, unassigned) [Example 321, (R)- or (S)-1-(1-(3-Chloro-4-(trifluoromethoxy)phenyl)ethyl)-6-hydroxy-3-(trifluoromethyl)-1H-pyrazolo[3,4-d]pyrimidin-4(5H)-one], the Ki worked out at 145 nM.

For the molecule `CC(c1ccc(OC(F)(F)F)c(Cl)c1)n1nc(C(F)(F)F)c2c(=O)[nH]c(O)nc21` (single isomer, unassigned) [Example 322, (S)- or (R)-1-(1-(3-Chloro-4-(trifluoromethoxy)phenyl)ethyl)-6-hydroxy-3-(trifluoromethyl)-1H-pyrazolo[3,4-d]pyrimidin-4(5H)-one], the Ki came to 9.3 nM.

`CC(c1ccc(OC(F)F)c(F)c1)n1nc(C(F)(F)F)c2c(=O)[nH]c(O)nc21` (single isomer, unassigned) [Example 323, (R)- or (S)-1-(1-(4-(Difluoromethoxy)-3-fluorophenyl)ethyl)-6-hydroxy-3-(trifluoromethyl)-1H-pyrazolo[3,4-d]pyrimidin-4(5H)-one]: the Ki came out at 304 nM.

In the case of `CC(c1ccc(OC(F)F)c(F)c1)n1nc(C(F)(F)F)c2c(=O)[nH]c(O)nc21` (single isomer, unassigned) [Example 324, (S)- or (R)-1-(1-(4-(Difluoromethoxy)-3-fluorophenyl)ethyl)-6-hydroxy-3-(trifluoromethyl)-1H-pyrazolo[3,4-d]pyrimidin-4(5H)-one], the Ki came to 6.8 nM.

`CC(c1ccc(OC(F)F)c(Cl)c1)n1nc(C(F)(F)F)c2c(=O)[nH]c(O)nc21` (single isomer, unassigned) [Example 325, (R)- or (S)-1-(1-(3-Chloro-4-(difluoromethoxy)phenyl)ethyl)-6-hydroxy-3-(trifluoromethyl)-1H-pyrazolo[3,4-d]pyrimidin-4(5H)-one]: the Ki is 529 nM.
